In patent publication US7378387B2, “Method of suppressing immune response by reducing intracellular content of glutathione in macrophages and monocytes” (Ajinomoto Co., Inc., priority 1997, dated 2008):

Columns and labels:
[1] = test system: insulin-non-dependent diabetes mellitus; experiment: Blood sugar level in db/db mice (Example 26); type: in vivo; conditions: intraperitoneal, age 4 to 9 weeks, three times per week; at satiation; saline 100
Source text: db/db mice purchased from Nippon Clair, Co. were naturally mated together. Among the off spring mice, a colony of db/db mice with a high frequency of the spontaneous onset of insulin-non-dependent diabetes mellitus was established. Male db/db mice from the colony were used for the present experiment. Chemical agents were intraperitoneally administered to the db/db mice aged 4 to 9 weeks three times per week, in total 18 times; and based on the level of blood sugar in the mice at satiation, the effects of the chemical agents on the improvement of the diseased conditions of insulin-non-dependent diabetes mellitus were followed once per week. The doses were the same as in Example 24.

[2] = test system: macrophage-like cells from tissues of rheumatoid arthritis patients; experiment: Intracellular GSH by ACAS in macrophage-like cells from tissues of rheumatoid arthritis patients (Example 17); type: cell-based, human; conditions: 3 hours; for relative ratio of oxidative macrophages (reduced amount of intracellular glutathione) compared with saline-added group: added at 2 mM
Description: Synovial tissue was aseptically sampled from tissues resected during joint surgery. The sampled synovial tissue was rinsed in phosphate buffer, from which the surface was peeled off in a petri dish containing the same phosphate buffer. Then, the resulting synovial tissue was cut into pieces with a pair of scissors. To the pieces were added 2% hyaluronidase (manufactured by Sigma), 0.2% DNase (derived from bovine pancreas) and 5% collagenase, for enzymatic treatment at 37° C. for 2 hours. After discarding the resulting debris, a cell fraction recovered by centrifugation was adjusted to 5×10^5 cells/ml in a phenol red-free DMEM culture medium supplemented with 10% FCS (manufactured by Nikken Biology Co.). For 3 hours, the cells were allowed to adhere to the plastic surface. Plastic surface adherent macrophage-like cells harvested with a rubber policeman were then subjected to rinsing in combination with centrifugation three times using the culture medium under ice cooling. The resulting cells were designated as synovial tissue-derived macrophages and were then subjected to the following experiments.
By the same manner as in Example 3, macrophage-like cells were collected from tissues of rheumatoid arthritis patients, and were then suspended and adjusted in a phenol red-free RPMI 1640 culture medium supplemented with 10% fetal calf serum to 3×10^6 cells/ml. The suspension was divided in 100-μl portions on Lab-Tek Chamber Slide (#136439; manufactured by NUNC, CO.), for culturing in 5% CO2 at 37° C. for 3 hours; after discarding the nonadherent cells, the 200-μl serum-free culture medium further containing any of the following chemical agents was fed to the resulting culture, for reaction for 3 hours; and then, the resulting culture was rinsed three times, followed by addition of the serum-free culture medium of 200 μl and addition of monochlorobimane to a final concentration of 10 μM, for reaction for 30 minutes. The amount of intracellular GSH was assayed by imaging analysis with an ACAS system (manufactured by Meridian Co.).

[3] = test system: IL-12; experiment: IL-12 production of MΦ from JaK3 knock out mice (Example 6); type: in vivo; conditions: stimulation of LPS or IFNγ; 1 mg/ml in city water, 24 days; no production in control group
Description: The amount of IL-12 was determined through bioassay using cells of human T cell strain 2D6 (J. Leukocyte Biology, vol. 61, p. 346, 1997).
2D6 cells which had been incubated in an RPMI 1640 medium containing 500 pg/ml of recombinant human IL-12, 50 μM of 2-mercaptoethanol and 10% FCS (fetal calf serum) were moved to a tube, and centrifugally washed three times with the above-mentioned medium without IL-12 and cell density was adjusted to 1×10^5/ml. The cell suspension was added in an amount of 100 μl each to a 96-well flat bottom plate containing a sample serially diluted in advance with an RPMI 1640 medium containing 50 μM of 2-mercaptoethanol and 10% FCS in an amount of 100 μl each. […] The cells a harvested, and the radioactivity was measured using a β counter (Matrix 96, supplied by Packard).
(§1) Macrophages (MΦ) were prepared from knock out mice deficient in a molecule participating in a signal transduction system from a receptor, and the function of the redox system was analyzed. […]
(§2) Peritoneal cells were harvested from three groups of knock out mice, and stimulated with LPS, IL-2, IFNγ and a combination thereof. The NO production, the IL-6 production and the IL-12 production were measured. […] Then, the IL-6 production was analyzed. In LPS stimulation, the amount was detected as 962 pg/ml in the knock out mice derived MΦ culture, 122 pg/ml in the NAC group, and 82 pg/ml in the GSH-OEt group. […]

[4] = test system: IL-6; experiment: IL-6 production of MΦ from JaK3 knock out mice (Example 6); type: in vivo; conditions: LPS stimulation; 1 mg/ml in city water, 24 days; control knock out mice 962 pg/ml
Description: A stimulator was added to 1×10^6 MΦ, and the incubation was conducted at 37° C. for 2 days in a CO2 incubator. After centrifugation, the culture supernatant was collected.
The amount of IL-6 was determined using IL-6 dependent mouse hybridoma MH60 cells (J. Eur. Immunol., vol. 18, p. 951, 1988). One hundred microliters of the culture supernatant were added to 100 μl of the MH60 cell suspension adjusted to 1×10^5 cells/ml in a 10% FCS-containing RPMI medium, and the mixed solution was incubated at 37° C. for 2 days in a CO2 incubator. […] Immediately after the dissolution, an absorbance of 570 nm was measured with an immunometer (supplied by Bio-Rad).
as §1, §2

| SMILES | Relative ratio % of blood sugar level, 6 weeks [1] [%] | Relative ratio % of blood sugar level, 7 weeks [1] [%] | Relative ratio % of blood sugar level, 8 weeks [1] [%] | induction of oxidative macrophage with the reduced amount of intracellular glutathione ([2]; added at 2 μM) | amount of IL-12 [3] [pg/mL] | relative ratio of oxidative macrophages (reduced amount of intracellular glutathione) compared with saline-added group [2] | relative ratio of oxidative macrophages (reduced amount of intracellular glutathione) compared with saline-added group ([2]; listed as glutathione ethyl ester) | IL-6 production [4] [pg/mL] |
| --- | --- | --- | --- | --- | --- | --- | --- | --- |
| CC(=O)N[C@@H](CSSC[C@H](NC(C)=O)C(=O)O)C(=O)O [(NAC)2, N,N′-diacetylcystine] | 95 | 100 | 98 |  |  |  |  |  |
| COC(=O)[C@H](CSSC[C@H](NC(C)=O)C(=O)OC)NC(C)=O [(NAC-OMe)2, N,N′-diacetylcystine dimethyl ester] | 94 | 92 | 93 | confirmed |  |  |  |  |
| CCOC(=O)CNC(=O)[C@H](CS)NC(=O)CC[C@H](N)C(=O)O [GSH-OEt, glutathione monoethyl ester] |  |  |  |  | 610 | same action was also observed | decreased | 82 |
| CC(=O)N[C@@H](CS)C(=O)O [NAC, N-acetylcysteine, reference compound] |  |  |  |  | 420 |  |  | 122 |
